According to US11612603B1, “3-triazolyl methyl-1,3,5-triazine-2,4-dione compounds and preparation method and application thereof” (priority 2022, dated 2023):

Tests used:
SARS-CoV-2 3CL^pro = SARS-CoV-2 3CL^pro (Severe acute respiratory syndrome coronavirus 2 (2019-nCoV) (SARS-CoV-2), UniProt P0DTD1); experiment: biochemical; settings: for IC50: 3CL^pro FRET
A549 cells = experiment: In vitro cytotoxicity, MTT method, A549 cells; assay type: cell-based; settings: for A549 cell viability: 24 h, MTT
Procedure: (§1) HepG2, HEK293 and A549 cells were taken in logarithmic growth phase, digested with trypsin to prepare cell suspensions. The cell density was adjusted to 5×10^4 cells/mL, inoculating 180 μL per well in a sterile 96-well cell culture plate, incubating for 24 h at 37° C. in a 5% CO2 incubator. After the cells were attached to the bottom of the well plate, 20 μL of the drug solutions in a concentration gradient were added to each well, and 6 duplicate wells were set up in parallel, including blank group (no cells, no compounds) and control groups (no compounds). After incubating for 24 h at 37° C. in a 5% CO2 constant temperature incubator, 20 μL of 5 g/L MTT solution was added to each well for 4 h. After the incubation, the culture medium in the wells was gently aspirated, 100 μL of DMSO was added to each well, and the cells were shaken at low speed for 10 min on a shaker to fully dissolve the crystals to calculate cell viability. Cell viability (%)=(Sample Group GD Value−Blank Group GD Value)/(Control Group GD Value−Blank Group GD Value)

HepG2 cells = experiment: In vitro cytotoxicity, MTT method, HepG2 cells; assay type: cell-based; settings: for HEPG2 cell viability: 24 h, MTT
Procedure: as §1

HEK293 cells = experiment: In vitro cytotoxicity, MTT method, HEK293 cells; assay type: cell-based; settings: for HEK293 cell viability: 24 h, MTT
Procedure: as §1

Cn1cc2cc(/N=c3\[nH]c(=O)n(Cc4cnn[nH]4)c(=O)n3Cc3ccc(Cl)cc3)c(Cl)cc2n1 [Compound 9]
IC50 (SARS-CoV-2 3CL^pro; class symbols): 200 to 500 nM

(E)-6-(6-chloro-2-methyl-2H-indazol-5-yl)imino)-3-(1-ethyl-1H-1,2,3-triazole-5-(yl)methyl)-1-(4-(trifluoromethyl)benzyl)-1,3,5-triazine-2,4-dione [Compound 18]
IC50 (SARS-CoV-2 3CL^pro): < 100 nM
IC50 (SARS-CoV-2 3CL^pro; class symbols): < 100 nM

Cn1cc2cc(/N=c3\[nH]c(=O)n(Cc4cnnn4C4CCC4)c(=O)n3Cc3cc(F)c(F)cc3F)c(Cl)cc2n1 [Compound 24]
IC50 (SARS-CoV-2 3CL^pro; class symbols): 200 to 500 nM

COc1ccc(Cn2c(=O)n(Cc3cnn[nH]3)c(=O)[nH]/c2=N\c2cc3cn(C)nc3cc2Cl)cc1 [Compound 6]
IC50 (SARS-CoV-2 3CL^pro; class symbols): > 1000 nM

Cn1cc2cc(/N=c3\[nH]c(=O)n(Cc4cnnn4C)c(=O)n3Cc3cc(F)c(F)cc3F)c(Cl)cc2n1 [Compound 16]
IC50 (SARS-CoV-2 3CL^pro): < 200 nM

CC(C)n1nncc1Cn1c(=O)[nH]/c(=N\c2cc3cn(C)nc3cc2Cl)n(Cc2cc(F)c(F)cc2F)c1=O [Compound 22]
IC50 (SARS-CoV-2 3CL^pro): < 200 nM

Cn1cc2cc(/N=c3\[nH]c(=O)n(Cc4cnnn4C4CC4)c(=O)n3Cc3cc(F)c(F)cc3F)c(Cl)cc2n1 [Compound 21]
IC50 (SARS-CoV-2 3CL^pro; class symbols): 200 to 500 nM

CC(C)Cn1nncc1Cn1c(=O)[nH]/c(=N\c2cc3cn(C)nc3cc2Cl)n(Cc2cc(F)c(F)cc2F)c1=O [Compound 23]
IC50 (SARS-CoV-2 3CL^pro): < 200 nM

(E)-6-(2-methyl-2H-indazol-5-yl)imino)-3-(1-ethyl-1H-1,2,3-triazol-5-yl)methyl)-1-(4-fluorobenzyl)-1,3,5-triazine-2,4-dione [Compound 19]
IC50 (SARS-CoV-2 3CL^pro; class symbols): 200 to 500 nM

Cn1cc2cc(/N=c3\[nH]c(=O)n(Cc4cnn[nH]4)c(=O)n3Cc3ccc(C(F)(F)F)cc3)c(Cl)cc2n1 [Compound 12]
A549 cell viability (A549 cells; 1.5625 nM): 98.52%
A549 cell viability (A549 cells; 3.125 nM): 97.34%
A549 cell viability (A549 cells; 6.25 nM): 96.55%
A549 cell viability (A549 cells; 12.5 nM): 97.32%
A549 cell viability (A549 cells; 25 nM): 96.21%
A549 cell viability (A549 cells; 50 nM): 98.03%
A549 cell viability (A549 cells; 100 nM): 96.61%
A549 cell viability (A549 cells; 200 nM): 94.13%
A549 cell viability (A549 cells; 400 nM): 90.13%
A549 cell viability compared with positive drugs (A549 cells; at 12.5 nM and lower): higher than that of PF-07321332 and S-217622
toxicity on A549 cells compared with positive drugs (A549 cells; at 400 nM and 200 nM): slightly higher than that of PF-07321332 and S-217622
HEPG2 cell viability (HepG2 cells; 1.5625 nM): 95.73%
HEPG2 cell viability (HepG2 cells; 3.125 nM): 95.07%
HEPG2 cell viability (HepG2 cells; 6.25 nM): 93.31%
HEPG2 cell viability (HepG2 cells; 12.5 nM): 90.22%
HEPG2 cell viability (HepG2 cells; 25 nM): 88.36%
HEPG2 cell viability (HepG2 cells; 50 nM): 86.83%
HEPG2 cell viability (HepG2 cells; 100 nM): 86.63%
HEPG2 cell viability (HepG2 cells; 200 nM): 81.38%
HEPG2 cell viability (HepG2 cells; 400 nM): 76.67%
HepG2 cell viability compared with positive drugs (HepG2 cells; at 12.5 nM and lower): higher than that of PF-07321332 and S-217622
toxicity on HepG2 cells compared with positive drugs (HepG2 cells; at 400 nM and 200 nM): slightly higher than that of PF-07321332 and S-217622
IC50 (SARS-CoV-2 3CL^pro): 178 nM
inhibition at 0.0001 µM (SARS-CoV-2 3CL^pro; Conc 0.1 nM, read-out: Inhibitory activity on 3CL^pro (inhibition rate)): 0.76%
inhibition at 0.001 µM (SARS-CoV-2 3CL^pro; Conc 1 nM, read-out: Inhibitory activity on 3CL^pro (inhibition rate)): 2.33%
inhibition at 0.005 µM (SARS-CoV-2 3CL^pro; Conc 5 nM, read-out: Inhibitory activity on 3CL^pro (inhibition rate)): 5.73%
inhibition at 0.01 µM (SARS-CoV-2 3CL^pro; Conc 10 nM, read-out: Inhibitory activity on 3CL^pro (inhibition rate)): 8.52%
inhibition at 0.02 µM (SARS-CoV-2 3CL^pro; Conc 20 nM, read-out: Inhibitory activity on 3CL^pro (inhibition rate)): 12.1%
inhibition at 0.03 µM (SARS-CoV-2 3CL^pro; Conc 30 nM, read-out: Inhibitory activity on 3CL^pro (inhibition rate)): 16.5%
inhibition at 0.05 µM (SARS-CoV-2 3CL^pro; Conc 50 nM, read-out: Inhibitory activity on 3CL^pro (inhibition rate)): 21.2%
inhibition at 0.1 µM (SARS-CoV-2 3CL^pro; Conc 100 nM, read-out: Inhibitory activity on 3CL^pro (inhibition rate)): 37.2%
inhibition at 0.5 µM (SARS-CoV-2 3CL^pro; Conc 500 nM, read-out: Inhibitory activity on 3CL^pro (inhibition rate)): 68.7%
inhibition at 1 µM (SARS-CoV-2 3CL^pro; Conc 1000 nM, read-out: Inhibitory activity on 3CL^pro (inhibition rate)): 88.6%
HEK293 cell viability (HEK293 cells; 1.5625 nM): 93.67%
HEK293 cell viability (HEK293 cells; 3.125 nM): 93.03%
HEK293 cell viability (HEK293 cells; 6.25 nM): 92.31%
HEK293 cell viability (HEK293 cells; 12.5 nM): 90.69%
HEK293 cell viability (HEK293 cells; 25 nM): 84.22%
HEK293 cell viability (HEK293 cells; 50 nM): 82.91%
HEK293 cell viability (HEK293 cells; 100 nM): 81.24%
HEK293 cell viability (HEK293 cells; 200 nM): 80.57%
HEK293 cell viability (HEK293 cells; 400 nM): 78.23%
HEK293 cell viability compared with positive drugs (HEK293 cells; at 12.5 nM and lower): higher than that of PF-07321332 and S-217622
toxicity on HEK293 cells compared with positive drugs (HEK293 cells; at 400 nM and 200 nM): slightly higher than that of PF-07321332 and S-217622

Cn1cc2cc(/N=c3\[nH]c(=O)n(Cc4cnn[nH]4)c(=O)n3Cc3ccc(OC(F)(F)F)cc3)c(Cl)cc2n1 [Compound 7]
IC50 (SARS-CoV-2 3CL^pro): < 100 nM
IC50 (SARS-CoV-2 3CL^pro; class symbols): < 100 nM
